Laboratory results reported in PubChem BioAssay (NCI).
Where “and” joins values, the source holds several entries; their conditions need not be identical. Identical values can stand only once.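 Exposure lasted 48 hours, with cells grown in 96-well plates and compounds tested at five concentrations. GI50: concentration for 50% inhibition of growth. TGI: total growth inhibition.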

Assays:
Assay in all cases: NCI-60 cell line screen, 48 h
[1] = tested on: UACC-62 melanoma
[2] = tested on: SNB-19 CNS
[3] = tested on: SW-620 colon
[4] = tested on: 786-0 renal
[5] = tested on: TK-10 renal
[6] = tested on: T-47D breast
[7] = tested on: A498 renal
[8] = tested on: SK-OV-3 ovarian
[9] = tested on: CCRF-CEM leukemia
[10] = tested on: ACHN renal

Compound	GI50 [1]	TGI [1]	GI50 [2]	TGI [2]	GI50 [3]	TGI [3]	GI50 [4]	TGI [4]	GI50 [5]	TGI [5]	GI50 [6]	TGI [6]	GI50 [7]	TGI [7]	GI50 [8]	TGI [8]	GI50 [9]	TGI [9]	GI50 [10]	TGI [10]
CC(C)(C)[OH+][O-].[O-]c1ccc(Cl)cc1C=Nc1ccc(Cl)cc1[O-].[O]=[V]	10.7 µM	37.5 µM	25.1 µM	66.2 µM	19.6 µM	41.7 µM	3.73 µM	27.1 µM	13.8 µM	73.7 µM	11.9 µM	98.7 µM	27.7 µM	64.2 µM	19.6 µM	46.6 µM	3.93 µM	35.3 µM	16.2 µM	48 µM
COc1ccc(C(=O)Cn2c(C(=O)c3ccc(OC)cc3)nc3ccccc32)cc1	3.47 µM	> 100 µM	4.37 µM	> 100 µM	0.816 µM	> 100 µM	4.54 µM	> 100 µM	4.8 µM	> 100 µM	3.39 µM	> 100 µM	1.64 µM	> 100 µM	2.96 µM	> 100 µM	1.69 µM	> 42.8 µM	6.58 µM	> 100 µM
COc1ccc(C(=O)/C=C/c2ccc(O)c(O)c2F)c(OC)c1	–	16.8 µM and 21.9 µM	10.7 µM	19 µM and 26.1 µM	–	75 µM and 25.5 µM	1.88 µM	31.3 µM and 17.1 µM	7.64 µM	28.5 µM and 23.4 µM	3.21 µM	75 µM and > 100 µM	10.5 µM	21.3 µM and 30.6 µM	17.6 µM	47 µM and 90.3 µM	–	6.5 µM	5.49 µM	25.6 µM and > 100 µM
CCCCCCCCCCCCN1C(C)=CS/C1=C\C=C\c1scc(C)[n+]1CCCCCCCCCCCC	1.1 µM	3.41 µM	1.91 µM	10.3 µM	1.71 µM	7.19 µM	2.17 µM	7.37 µM	0.934 µM	3.9 µM	0.817 µM	6.77 µM	0.822 µM	4.09 µM	2.74 µM	22.9 µM	1.98 µM	> 100 µM	1.84 µM	10.4 µM
CC/C=C\C[C@H](O)C/C=C1/C(=O)C=C[C@@H]1C/C=C\CCCC(=O)NC(C)C	1.77 µM	4.22 µM	8.75 µM	22.6 µM	3.16 µM	10.8 µM	2.47 µM	5.4 µM	3.73 µM	9.64 µM	4.19 µM	19.2 µM	5.16 µM	16.3 µM	4.57 µM	14.8 µM	2.09 µM	8.38 µM	1.84 µM	3.49 µM
N#CC1=C(N)Oc2cc3c(cc2C1c1cccs1)OCO3 (configuration not stated)	0.485 µM	> 100 µM	1.36 µM	> 100 µM	0.356 µM	> 100 µM	0.686 µM	> 68.3 µM	1.86 µM	> 67.8 µM	0.595 µM	> 70.5 µM	0.234 µM	10.2 µM	0.575 µM	8.1 µM	0.404 µM	> 29.8 µM	3.63 µM	> 100 µM
COc1ccc(CN2C(=O)/C(=C\c3cc(OC)c(OC)c(OC)c3)c3cc(OC)ccc32)cc1	1.71 µM	4.19 µM	3 µM	10.7 µM	1.82 µM	3.41 µM	2.29 µM	5.07 µM	3.92 µM	18.6 µM	2.34 µM	7.62 µM	1.5 µM	4.39 µM	3.12 µM	13.1 µM	3.4 µM	> 100 µM	1.73 µM	3.2 µM
